Results published in US20250101023A1, “HETEROARYL DERIVATIVE AND USES THEREOF” (IUCF-HYU (INDUSTRY-UNIVERSITY COOPERATION FOUNDATION …, priority 2022, published 2025).

Assays:
IGF1R = IGF1R (Homo sapiens (Human), UniProt P08069); assay: Kinome-wide profiling; type: biochemical; settings: read-out: % Residual Activity (mean)
MEK5 = MEK5 (Homo sapiens (Human), UniProt Q13163); assay: Kinome-wide profiling; type: biochemical; settings: read-out: % Residual Activity (mean)
ROCK1 = ROCK1 (Homo sapiens (Human), UniProt Q13464); assay: Kinome-wide profiling; type: biochemical; settings: read-out: % Residual Activity (mean)
CDK3/cyclin E = CDK3/cyclin E (Homo sapiens (Human), UniProt Q00526); assay: Kinome-wide profiling; type: biochemical; settings: read-out: % Residual Activity (mean)
CDK3/cyclin E, sequence (Q00526 whole entry): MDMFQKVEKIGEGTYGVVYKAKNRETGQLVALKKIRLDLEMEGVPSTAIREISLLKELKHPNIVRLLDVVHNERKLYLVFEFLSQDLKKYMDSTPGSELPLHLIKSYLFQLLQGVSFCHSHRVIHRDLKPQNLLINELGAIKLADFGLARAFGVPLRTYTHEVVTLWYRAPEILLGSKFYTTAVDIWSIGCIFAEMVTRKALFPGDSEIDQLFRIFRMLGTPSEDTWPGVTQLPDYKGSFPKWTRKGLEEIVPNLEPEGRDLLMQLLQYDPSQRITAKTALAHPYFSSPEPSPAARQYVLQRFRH
CDK3/cyclin E, sequence (P24864 whole entry partner): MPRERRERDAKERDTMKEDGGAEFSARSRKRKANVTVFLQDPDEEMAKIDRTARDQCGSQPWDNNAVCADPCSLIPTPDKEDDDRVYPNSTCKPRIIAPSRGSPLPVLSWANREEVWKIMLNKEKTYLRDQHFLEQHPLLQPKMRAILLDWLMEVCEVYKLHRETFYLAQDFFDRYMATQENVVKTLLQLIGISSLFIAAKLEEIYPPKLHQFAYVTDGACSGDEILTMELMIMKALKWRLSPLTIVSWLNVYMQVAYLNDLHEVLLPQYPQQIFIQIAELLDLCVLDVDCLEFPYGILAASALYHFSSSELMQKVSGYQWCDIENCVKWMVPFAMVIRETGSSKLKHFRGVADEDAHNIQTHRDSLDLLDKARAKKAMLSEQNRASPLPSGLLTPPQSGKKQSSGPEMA

MNK1 = MNK1 (Homo sapiens (Human), UniProt Q9BUB5); assay: Kinome-wide profiling; type: biochemical; settings: read-out: % Residual Activity (mean)
FLT3 = FLT3 (Homo sapiens (Human), UniProt P36888); assay: Kinome-wide profiling; type: biochemical; settings: read-out: % Residual Activity (mean)
RET = RET (Homo sapiens (Human), UniProt P07949); assay: Kinome-wide profiling; type: biochemical; settings: read-out: % Residual Activity (mean)
CTK/MATK = CTK/MATK (Homo sapiens (Human), UniProt P42679); assay: Kinome-wide profiling; type: biochemical; settings: read-out: % Residual Activity (mean)
LIMK1 = LIMK1 (Homo sapiens (Human), UniProt P53667); assay: Kinome-wide profiling; type: biochemical; settings: read-out: % Residual Activity (mean)
LIMK1, sequence (P53667 whole entry): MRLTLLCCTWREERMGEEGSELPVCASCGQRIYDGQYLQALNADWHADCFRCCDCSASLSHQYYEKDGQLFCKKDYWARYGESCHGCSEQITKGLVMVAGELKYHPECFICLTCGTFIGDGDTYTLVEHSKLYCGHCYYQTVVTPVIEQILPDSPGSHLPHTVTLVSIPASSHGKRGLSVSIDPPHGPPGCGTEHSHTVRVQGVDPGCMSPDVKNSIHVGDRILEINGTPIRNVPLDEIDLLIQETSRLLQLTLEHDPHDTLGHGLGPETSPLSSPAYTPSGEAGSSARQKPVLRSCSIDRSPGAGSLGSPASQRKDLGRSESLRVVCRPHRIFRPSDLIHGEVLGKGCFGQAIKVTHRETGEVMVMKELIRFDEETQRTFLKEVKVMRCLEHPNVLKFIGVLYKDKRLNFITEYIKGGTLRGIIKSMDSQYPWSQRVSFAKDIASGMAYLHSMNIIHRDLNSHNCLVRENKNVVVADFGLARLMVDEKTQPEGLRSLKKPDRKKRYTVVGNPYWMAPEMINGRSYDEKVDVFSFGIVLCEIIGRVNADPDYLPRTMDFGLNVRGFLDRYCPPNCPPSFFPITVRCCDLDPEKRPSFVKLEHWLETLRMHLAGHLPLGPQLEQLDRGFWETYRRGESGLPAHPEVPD

PAK6 = PAK6 (Homo sapiens (Human), UniProt Q9NQU5); assay: Kinome-wide profiling; type: biochemical; settings: read-out: % Residual Activity (mean)
TSSK3/STK22C = TSSK3/STK22C (Homo sapiens (Human), UniProt Q96PN8); assay: Kinome-wide profiling; type: biochemical; settings: read-out: % Residual Activity (mean)
EPHA4 = EPHA4 (Homo sapiens (Human), UniProt P54764); assay: Kinome-wide profiling; type: biochemical; settings: read-out: % Residual Activity (mean)
SGK1 = SGK1 (Homo sapiens (Human), UniProt O00141); assay: Kinome-wide profiling; type: biochemical; settings: read-out: % Residual Activity (mean)
PHKg2 = PHKg2 (Homo sapiens (Human), UniProt P15735); assay: Kinome-wide profiling; type: biochemical; settings: read-out: % Residual Activity (mean)
FGFR2 = FGFR2 (Homo sapiens (Human), UniProt P21802); assay: Kinome-wide profiling; type: biochemical; settings: read-out: % Residual Activity (mean)
STK39/STLK3 = STK39/STLK3 (Homo sapiens (Human), UniProt Q9UEW8); assay: Kinome-wide profiling; type: biochemical; settings: read-out: % Residual Activity (mean)
CDK1/cyclin E = CDK1/cyclin E (Homo sapiens (Human), UniProt P06493); assay: Kinome-wide profiling; type: biochemical; settings: read-out: % Residual Activity (mean)
CDK3/cyclin E2 = CDK3/cyclin E2 (Homo sapiens (Human), UniProt Q00526); assay: Kinome-wide profiling; type: biochemical; settings: read-out: % Residual Activity (mean)
IKKe/IKBKE = IKKe/IKBKE (Homo sapiens (Human), UniProt Q14164); assay: Kinome-wide profiling; type: biochemical; settings: read-out: % Residual Activity (mean)
CAMK4 = CAMK4 (Homo sapiens (Human), UniProt Q16566); assay: Kinome-wide profiling; type: biochemical; settings: read-out: % Residual Activity (mean)
KSR2 = KSR2 (Homo sapiens (Human), UniProt Q6VAB6); assay: Kinome-wide profiling; type: biochemical; settings: read-out: % Residual Activity (mean)
ROS/ROS1 = ROS/ROS1 (Homo sapiens (Human), UniProt P08922); assay: Kinome-wide profiling; type: biochemical; settings: read-out: % Residual Activity (mean)
ROS/ROS1, sequence (P08922 28-2347): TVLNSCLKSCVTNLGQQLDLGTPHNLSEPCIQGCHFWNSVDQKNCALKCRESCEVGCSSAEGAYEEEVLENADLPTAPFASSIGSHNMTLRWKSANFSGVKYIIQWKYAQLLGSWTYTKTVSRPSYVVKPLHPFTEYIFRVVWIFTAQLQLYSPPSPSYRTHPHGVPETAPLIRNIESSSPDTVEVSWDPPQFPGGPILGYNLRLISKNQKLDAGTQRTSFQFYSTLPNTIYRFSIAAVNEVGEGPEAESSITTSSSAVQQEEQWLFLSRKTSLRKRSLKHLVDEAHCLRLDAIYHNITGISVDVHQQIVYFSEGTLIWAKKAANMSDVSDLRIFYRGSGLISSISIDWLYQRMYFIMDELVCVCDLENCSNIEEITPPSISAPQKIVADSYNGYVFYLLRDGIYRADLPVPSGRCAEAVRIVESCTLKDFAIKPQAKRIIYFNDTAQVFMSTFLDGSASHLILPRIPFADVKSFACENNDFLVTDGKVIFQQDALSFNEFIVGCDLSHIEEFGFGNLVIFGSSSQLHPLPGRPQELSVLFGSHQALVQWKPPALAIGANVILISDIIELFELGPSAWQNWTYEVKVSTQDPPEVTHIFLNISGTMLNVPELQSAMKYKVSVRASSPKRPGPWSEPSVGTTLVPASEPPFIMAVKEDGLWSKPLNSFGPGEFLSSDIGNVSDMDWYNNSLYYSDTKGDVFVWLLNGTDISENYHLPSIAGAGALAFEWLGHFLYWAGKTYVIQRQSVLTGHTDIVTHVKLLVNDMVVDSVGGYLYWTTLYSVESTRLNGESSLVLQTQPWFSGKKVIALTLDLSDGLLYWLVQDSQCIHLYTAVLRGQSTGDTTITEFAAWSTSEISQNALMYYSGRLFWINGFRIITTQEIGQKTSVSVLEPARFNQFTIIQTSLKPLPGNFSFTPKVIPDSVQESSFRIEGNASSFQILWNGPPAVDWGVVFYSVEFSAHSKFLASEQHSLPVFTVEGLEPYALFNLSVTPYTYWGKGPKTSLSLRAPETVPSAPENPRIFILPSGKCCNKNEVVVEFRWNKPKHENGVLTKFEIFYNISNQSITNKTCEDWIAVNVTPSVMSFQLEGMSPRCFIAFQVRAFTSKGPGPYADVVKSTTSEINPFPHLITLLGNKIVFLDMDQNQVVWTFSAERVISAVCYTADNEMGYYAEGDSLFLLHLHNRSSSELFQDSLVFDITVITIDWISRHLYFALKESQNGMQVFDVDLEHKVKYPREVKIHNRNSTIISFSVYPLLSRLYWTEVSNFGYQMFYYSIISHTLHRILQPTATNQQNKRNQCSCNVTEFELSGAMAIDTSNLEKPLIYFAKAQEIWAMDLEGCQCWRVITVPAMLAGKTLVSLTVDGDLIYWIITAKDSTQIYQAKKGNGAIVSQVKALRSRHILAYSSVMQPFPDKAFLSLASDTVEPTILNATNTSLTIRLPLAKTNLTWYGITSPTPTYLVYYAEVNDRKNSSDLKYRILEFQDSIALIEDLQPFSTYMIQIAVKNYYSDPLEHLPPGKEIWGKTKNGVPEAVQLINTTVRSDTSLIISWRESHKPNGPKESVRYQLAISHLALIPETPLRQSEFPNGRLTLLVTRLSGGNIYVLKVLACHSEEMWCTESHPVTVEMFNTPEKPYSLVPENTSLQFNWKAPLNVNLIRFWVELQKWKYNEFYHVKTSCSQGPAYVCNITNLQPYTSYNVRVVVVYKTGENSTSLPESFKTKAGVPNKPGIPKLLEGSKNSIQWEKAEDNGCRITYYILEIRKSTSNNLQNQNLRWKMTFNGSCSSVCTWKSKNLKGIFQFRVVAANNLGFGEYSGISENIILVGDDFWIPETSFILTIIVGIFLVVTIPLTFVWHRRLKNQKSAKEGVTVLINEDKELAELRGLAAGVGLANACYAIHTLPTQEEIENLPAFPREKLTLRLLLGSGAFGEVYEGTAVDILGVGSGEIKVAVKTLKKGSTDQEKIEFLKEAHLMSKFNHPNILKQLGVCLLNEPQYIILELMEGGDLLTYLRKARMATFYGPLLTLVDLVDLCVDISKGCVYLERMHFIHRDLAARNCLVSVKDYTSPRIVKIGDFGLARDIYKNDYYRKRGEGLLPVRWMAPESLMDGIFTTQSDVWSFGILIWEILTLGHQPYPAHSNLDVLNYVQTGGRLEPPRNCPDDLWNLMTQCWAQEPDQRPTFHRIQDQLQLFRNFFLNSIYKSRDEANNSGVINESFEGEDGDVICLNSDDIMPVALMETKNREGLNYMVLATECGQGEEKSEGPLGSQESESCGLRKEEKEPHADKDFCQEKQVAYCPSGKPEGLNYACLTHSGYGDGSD

PKCzeta = PKCzeta (Homo sapiens (Human), UniProt Q05513); assay: Kinome-wide profiling; type: biochemical; settings: read-out: % Residual Activity (mean)
GRK6 = GRK6 (Homo sapiens (Human), UniProt P43250); assay: Kinome-wide profiling; type: biochemical; settings: read-out: % Residual Activity (mean)
GRK6, sequence (P43250 whole entry): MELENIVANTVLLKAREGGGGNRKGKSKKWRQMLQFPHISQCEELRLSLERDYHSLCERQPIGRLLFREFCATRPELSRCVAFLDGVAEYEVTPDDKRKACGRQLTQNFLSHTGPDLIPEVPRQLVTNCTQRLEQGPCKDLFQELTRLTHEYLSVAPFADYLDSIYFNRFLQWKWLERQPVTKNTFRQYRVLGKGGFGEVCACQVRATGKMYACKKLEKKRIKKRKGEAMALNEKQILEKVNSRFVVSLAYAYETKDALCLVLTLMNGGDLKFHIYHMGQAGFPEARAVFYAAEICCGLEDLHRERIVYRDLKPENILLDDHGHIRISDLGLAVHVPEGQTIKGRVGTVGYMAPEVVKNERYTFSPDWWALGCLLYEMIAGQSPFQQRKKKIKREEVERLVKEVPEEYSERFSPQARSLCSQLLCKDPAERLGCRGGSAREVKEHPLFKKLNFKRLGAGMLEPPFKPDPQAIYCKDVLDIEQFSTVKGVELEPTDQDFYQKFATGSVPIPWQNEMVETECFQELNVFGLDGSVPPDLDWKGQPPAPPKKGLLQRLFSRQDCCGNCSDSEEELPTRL

ULK2 = ULK2 (Homo sapiens (Human), UniProt Q8IYT8); assay: Kinome-wide profiling; type: biochemical; settings: read-out: % Residual Activity (mean)
LOK/STK10 = LOK/STK10 (Homo sapiens (Human), UniProt O94804); assay: Kinome-wide profiling; type: biochemical; settings: read-out: % Residual Activity (mean)
CDK2/cyclin O = CDK2/cyclin O (Homo sapiens (Human), UniProt P24941); assay: Kinome-wide profiling; type: biochemical; settings: read-out: % Residual Activity (mean)
MST4 = MST4 (Homo sapiens (Human), UniProt Q9P289); assay: Kinome-wide profiling; type: biochemical; settings: read-out: % Residual Activity (mean)
SGK3/SGKL = SGK3/SGKL (Homo sapiens (Human), UniProt Q96BR1); assay: Kinome-wide profiling; type: biochemical; settings: read-out: % Residual Activity (mean)
[1] = Liver microsomal metabolic stability; type: in vitro ADME
Procedure: 5 derivatives were evaluated for in vitro metabolic stability in liver microsomes from three different species (human, dog, mouse) and for inhibitory activity against 5 representative cytochrome P450 enzymes (CYPs)(Table 3). In terms of liver microsomal stability, the 2′-pyridyl group is more suitable than the α-methyl-4′-pyridyl group as the terminal aromatic group at position 6, and the aminopyrimidyl group is better than the aminopyridyl group as a substituent at position 2.

CAMK1g = CAMK1g (Homo sapiens (Human), UniProt Q96NX5); assay: Kinome-wide profiling; type: biochemical; settings: read-out: % Residual Activity (mean)
KHS/MAP4K5 = KHS/MAP4K5 (Homo sapiens (Human), UniProt Q9Y4K4); assay: Kinome-wide profiling; type: biochemical; settings: read-out: % Residual Activity (mean)
KHS/MAP4K5, sequence (Q9Y4K4 whole entry): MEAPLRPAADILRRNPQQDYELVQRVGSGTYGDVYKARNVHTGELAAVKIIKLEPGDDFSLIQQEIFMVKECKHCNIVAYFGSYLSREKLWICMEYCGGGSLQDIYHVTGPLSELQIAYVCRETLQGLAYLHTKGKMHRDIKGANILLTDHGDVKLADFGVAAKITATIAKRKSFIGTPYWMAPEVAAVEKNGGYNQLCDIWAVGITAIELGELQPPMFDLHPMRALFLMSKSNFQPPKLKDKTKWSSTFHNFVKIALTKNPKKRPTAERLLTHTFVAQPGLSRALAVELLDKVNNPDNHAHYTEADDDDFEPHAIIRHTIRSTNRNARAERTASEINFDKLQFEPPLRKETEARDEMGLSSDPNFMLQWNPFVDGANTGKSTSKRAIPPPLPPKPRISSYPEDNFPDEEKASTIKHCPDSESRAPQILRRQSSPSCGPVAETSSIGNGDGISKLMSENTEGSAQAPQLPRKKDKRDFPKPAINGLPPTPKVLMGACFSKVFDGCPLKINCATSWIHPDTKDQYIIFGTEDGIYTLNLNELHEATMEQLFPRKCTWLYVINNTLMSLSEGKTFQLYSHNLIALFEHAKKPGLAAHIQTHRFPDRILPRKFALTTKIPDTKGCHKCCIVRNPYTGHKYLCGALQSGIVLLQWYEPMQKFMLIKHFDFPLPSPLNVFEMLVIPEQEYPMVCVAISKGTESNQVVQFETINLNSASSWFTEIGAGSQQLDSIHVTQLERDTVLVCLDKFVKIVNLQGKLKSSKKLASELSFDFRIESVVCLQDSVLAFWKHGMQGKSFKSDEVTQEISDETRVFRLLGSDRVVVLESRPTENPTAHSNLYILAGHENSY

TRKA = TRKA (Homo sapiens (Human), UniProt P04629); assay: Kinome-wide profiling; type: biochemical; settings: read-out: % Residual Activity (mean)
CDK2/cyclin E2 = CDK2/cyclin E2 (Homo sapiens (Human), UniProt P24941); assay: Kinome-wide profiling; type: biochemical; settings: read-out: % Residual Activity (mean)
SGK2 = SGK2 (Homo sapiens (Human), UniProt Q9HBY8); assay: Kinome-wide profiling; type: biochemical; settings: read-out: % Residual Activity (mean)
LRRK2 = LRRK2 (Homo sapiens (Human), UniProt Q5S007); assay: Kinome-wide profiling; type: biochemical; settings: read-out: % Residual Activity (mean)
DRAK1/STK17A = DRAK1/STK17A (Homo sapiens (Human), UniProt Q9UEE5); assay: Kinome-wide profiling; type: biochemical; settings: read-out: % Residual Activity (mean)

For `CCn1cnc2c(NCc3ccc(-c4ccccn4)nc3)nc(-c3ccc(N)nc3)nc21` [Example 53, N-([2,2′-bipyridin]-5-ylmethyl)-2-(6-aminopyridin-3-yl)-9-ethyl-9H-purin-6-amine], which remaining activity at 10 µM (IGF1R) is on record?
Its remaining activity at 10 µM is 58%.

What about the remaining activity at 10 µM (MEK5) of the same molecule?
The remaining activity at 10 µM was 84.1%.

And the remaining activity at 10 µM (ROCK1)?
The remaining activity at 10 µM was 97.2%.

And the remaining activity at 10 µM (CDK3/cyclin E)?
The remaining activity at 10 µM was 0.99%.

What about the remaining activity at 10 µM (MNK1) of the same molecule?
Its remaining activity at 10 µM is 89.2%.

What about the remaining activity at 10 µM (FLT3) of the same molecule?
The remaining activity at 10 µM was 40.2%.

And the remaining activity at 10 µM (RET)?
The remaining activity at 10 µM was 79.5%.

And the remaining activity at 10 µM (CTK/MATK)?
Its remaining activity at 10 µM is 87.6%.

What about the remaining activity at 10 µM (LIMK1) of the same molecule?
Its remaining activity at 10 µM is 59.9%.

And the remaining activity at 10 µM (PAK6)?
Its remaining activity at 10 µM is 57.2%.

And the remaining activity at 10 µM (TSSK3/STK22C)?
Its remaining activity at 10 µM is 91.5%.

What about the remaining activity at 10 µM (EPHA4) of the same molecule?
The remaining activity at 10 µM was 3.61%.

What about the remaining activity at 10 µM (SGK1) of the same molecule?
Its remaining activity at 10 µM is 84.9%.

What about the remaining activity at 10 µM (PHKg2) of the same molecule?
The remaining activity at 10 µM was 56.9%.

And the remaining activity at 10 µM (FGFR2)?
Its remaining activity at 10 µM is 33.7%.

What about the remaining activity at 10 µM (STK39/STLK3) of the same molecule?
Its remaining activity at 10 µM is 29.6%.

What about the remaining activity at 10 µM (CDK1/cyclin E) of the same molecule?
The remaining activity at 10 µM was 7.49%.

And the remaining activity at 10 µM (CDK3/cyclin E2)?
The remaining activity at 10 µM was 2.63%.

What about the remaining activity at 10 µM (IKKe/IKBKE) of the same molecule?
Its remaining activity at 10 µM is 80.1%.

What about the remaining activity at 10 µM (CAMK4) of the same molecule?
The remaining activity at 10 µM was 95.2%.

And the remaining activity at 10 µM (KSR2)?
Its remaining activity at 10 µM is 88.4%.

What about the remaining activity at 10 µM (ROS/ROS1) of the same molecule?
The remaining activity at 10 µM was 27.8%.

What about the remaining activity at 10 µM (PKCzeta) of the same molecule?
Its remaining activity at 10 µM is 90.2%.

What about the remaining activity at 10 µM (GRK6) of the same molecule?
Its remaining activity at 10 µM is 80.6%.

What about the remaining activity at 10 µM (ULK2) of the same molecule?
The remaining activity at 10 µM was 87.3%.

And the remaining activity at 10 µM (LOK/STK10)?
The remaining activity at 10 µM was 41.4%.

And the remaining activity at 10 µM (CDK2/cyclin O)?
The remaining activity at 10 µM was 0.54%.

And the remaining activity at 10 µM (MST4)?
Its remaining activity at 10 µM is 45.8%.

What about the remaining activity at 10 µM (SGK3/SGKL) of the same molecule?
Its remaining activity at 10 µM is 92.6%.

What about the “Liver microsomal metabolic stability (% remaining amount) Dog” value ([1]; dog liver microsomes) of the same molecule?
Its value is 46.2%.

And the “Liver microsomal metabolic stability (% remaining amount) Human” value ([1]; human liver microsomes)?
The value was 64.8%.

And the “Liver microsomal metabolic stability (% remaining amount) Mouse” value ([1]; mouse liver microsomes)?
Its value is 49.9%.

What about the remaining activity at 10 µM (CAMK1g) of the same molecule?
Its remaining activity at 10 µM is 54.3%.

And the remaining activity at 10 µM (KHS/MAP4K5)?
Its remaining activity at 10 µM is 88.3%.

And the remaining activity at 10 µM (TRKA)?
Its remaining activity at 10 µM is 28.7%.

What about the remaining activity at 10 µM (CDK2/cyclin E2) of the same molecule?
The remaining activity at 10 µM was 9.78%.

And the remaining activity at 10 µM (SGK2)?
The remaining activity at 10 µM was 84.7%.

What about the remaining activity at 10 µM (LRRK2) of the same molecule?
Its remaining activity at 10 µM is 17.8%.

What about the remaining activity at 10 µM (DRAK1/STK17A) of the same molecule?
Its remaining activity at 10 µM is 79.3%.
